Reference: the OPERA property sets (Mansouri et al. 2018)

| SMILES | logP |
| --- | --- |
| CSc1nnc(-c2cc(Cl)cc(Cl)c2)c(=O)n1N | 3.02 |
| CCCCn1ccc(=O)c(O)c1C | 0.7 |
| CCCC1=Nc2cc(Cl)c(S(N)(=O)=O)cc2S(=O)(=O)N1 | 1.21 |
| CC(C)(C)C(COc1ccc(F)cc1)OC(=O)n1ccnc1 (configuration not stated) | 3.68 |
| NC1C2CCC1c1cc(C(F)(F)F)ccc1C2 (configuration not stated) | 3.59 |
| Cc1cc(C)c(C)c(C)c1 | 4.1 |
| Cc1cc(O)c(N)nn1 | -0.85 |
| OC(Cn1ccnc1)(c1ccc(F)cc1)c1ccc(Br)cc1 (configuration not stated) | 3.42 |
| CNC12CCCCC1CSc1ccccc12 (configuration not stated) | 3.88 |
| CNC(=O)CCn1ccc(=O)c(O)c1C | -1.1 |
| O=C1COC(=O)N1c1ccccc1 | 0.93 |
| CNc1nc(C)c(C(=O)CCN2CCOCC2)s1 | 0.95 |
| C[N+](C)(C)CC1CSCO1.[I-] (configuration not stated) | -2.7 |
| CCN(C)C(=O)CCn1ccc(=O)c(O)c1C | -0.69 |
| COC(=O)NC1=NCC(c2ccccc2F)N1C (configuration not stated) | 1.53 |
| CCON1C(=O)CC2(CCCC2)C1=O | 1.26 |
| O=C(O)Cc1ccc(O)c(O)c1 | 0.98 |
| CC(=O)NC(CC(N)=O)C(N)=O (configuration not stated) | -2.41 |
| C[C@@H]1O[C@@H](O[C@@H]2C=C3CC[C@@H]4[C@H](CC[C@]5(C)[C@@H](c6ccc(=O)oc6)CC[C@]45O)[C@@]3(C)CC2)[C@H](O)[C@H](O)[C@H]1O | 2.48 |
| O=c1[nH]c(=O)n(Cc2ccc(Cl)cc2)cc1F | 1.64 |
| COC(=O)c1cnc2n(c1=O)CCCC2 | -0.25 |
| CNC(=O)Oc1cc(C)c(N(C)C)c(C)c1 | 2.56 |
| Nc1nc(N)c2ncn([C@H]3C=C[C@@H](CO)O3)c2n1 | -0.48 |
| CC12CCC(OS(=O)(=O)O)CC1CCC1C2CCC2(C)C(C3=CC(=O)OC3)CCC12O (configuration not stated) | -0.14 |

| SMILES | logP |
| --- | --- |
| OC(Cn1ccnc1)(c1ccccc1)c1ccc(Br)cc1 (configuration not stated) | 3.35 |
| Clc1ccc(C(c2ccc(Cl)cc2)C(Cl)Cl)cc1 | 6.02 |
| Nc1c(Cl)c(Cl)c(Cl)c(Cl)c1Cl | 4.82 |
| CNc1nc(C)c(C(=O)CCN2CCCCC2)s1 | 2.21 |
| CCCC(=NOCC)C1C(=O)CC2(CCSCC2)OC1=O (configuration not stated) | 2.9 |
| COC(=O)NC1=NCC(c2ccc(C(C)C)cc2)N1 (configuration not stated) | 2.6 |
| Nc1nc(=O)n(C2OC(CO)CC2F)cc1Cl (configuration not stated) | -0.46 |
| Cc1nc(N)sc1C(=O)CCN1CCCCC1 | 2.13 |
| CC(=O)O.CCCCCCCCCCCCNC(=N)N | 1.15 |
| CCCNC(=O)c1ccco1 | 1.1 |
| CCCN1Cn2c(nc3ccccc3c2=O)C1C (configuration not stated) | 1.4 |
| NC12CCCCC1c1ccccc1C2 (configuration not stated) | 2.94 |
| Cc1ccccc1C=O | 2.26 |
| Clc1ccncc1 | 1.28 |
| CCCCC(CC)C(=O)N1c2ccc(C)cc2C2CN(C)CCC21 (configuration not stated) | 4.14 |
| CCCCC(=O)CC(=O)CCCC | 3.56 |
| Cn1c([N+](=O)[O-])cnc1COC(N)=O | -0.38 |
| NS(=O)(=O)c1cc2c(cc1Cl)NC(C(F)(F)F)NS2(=O)=O (configuration not stated) | 0.49 |
| CNC(=O)NCCCn1nc(-c2ccccc2)ccc1=O | 1.16 |
| O=C(O)c1cc([N+](=O)[O-])cc([N+](=O)[O-])c1O | 1.71 |
| CC(C)N(CCC(CCN1CCCCC1)(C(N)=O)c1ccccc1Cl)C(C)C (configuration not stated) | 4.78 |
| CSc1ccc(OCC(OC(=O)n2ccnc2)C(C)(C)C)cc1 (configuration not stated) | 4.03 |
| CC(C)(C)C(COc1ccc(C#N)cc1)OC(=O)n1ccnc1 (configuration not stated) | 3.15 |
| C[C@@H]1O[C@@H](O[C@H]2C[C@@H](O)[C@]3(CO)[C@H]4[C@H](O)C[C@]5(C)[C@@H](C6=CC(=O)OC6)CC[C@]5(O)[C@@H]4CC[C@]3(O)C2)[C@H](O)[C@H](O)[C@H]1O | -2 |

| SMILES | logP |
| --- | --- |
| CCCCn1ccc(=O)c(O)c1CC | 1.22 |
| CC(=O)OCC1=C(C(=O)O)N2C(=O)[C@@H](NC(=O)CSc3ccncc3)[C@H]2SC1 | -1.15 |
| CCn1cc(C(=O)O)c(=O)c2cc(F)c(N3CCNCC3)nc21 | -0.2 |
| Cc1ccc(C(=O)CCN2CCCCC2)c(C)c1 | 3.71 |
| O=c1[nH]c(=S)ccn1[C@H]1C=C[C@@H](CO)O1 | -0.28 |
| COC(=O)c1cc(=O)[nH]c(=O)[nH]1 | 0.63 |
| CCOC(=O)C1(c2ccccc2)CCN(C)CC1 | 2.72 |
| N#Cc1ccc(Cl)cc1 | 2.47 |
| O=C(c1c(F)c(F)c(F)c(F)c1F)c1ccc2n1CCC2C(=O)O (configuration not stated) | 3.24 |
| CNC12CC(O)CCC1CCc1ccccc12 (configuration not stated) | 2.37 |
| CCC(C(=O)OC(C)c1ccccc1)C(CO)Cc1cncn1C (configuration not stated) | 2.23 |
| O=[N+]([O-])c1cccc(S(=O)(=O)[O-])c1.[Na+] | -2.61 |
| O=C(O)CCc1ccc(OCc2ccccc2)cc1 | 3.31 |
| Nc1c(Cl)cc(Cl)cc1Cl | 3.52 |
| NC(=O)Nc1ccc(Cl)c(Cl)c1 | 2.65 |
| NC1C2CCC1c1ccc(C(F)(F)F)cc1C2 (configuration not stated) | 3.54 |
| CCCc1ccc(OCC(OC(=O)n2ccnc2)C(C)(C)C)cc1 (configuration not stated) | 4.73 |
| NC(=O)OC1c2ccccc2C2CCCCC2C1OC(N)=O (configuration not stated) | 2.17 |
| NS(=O)(=O)c1cc2c(cc1Br)NC=NS2(=O)=O | 0 |
| CCOC(=O)NC1=NCC(c2cccc(F)c2)N1C (configuration not stated) | 1.84 |
| O=CNCC#CCC(NC(=O)C(Cc1ccc2ccccc2c1)Cc1cccc2ccccc12)C(=O)NC(CC1CCCCC1)C(O)CC(=O)NCCN1CCOCC1 (configuration not stated) | 5.44 |
| CCCCNC(=O)CCn1ccc(=O)c(O)c1C | -0.1 |
| OCC1OC(O)C(O)C(O)C1O (configuration not stated) | -3.24 |
| CN1CC(=O)N(c2ccccc2)C1=O | 0.14 |

| SMILES | logP |
| --- | --- |
| Cc1ccc2c(c1)C1CN(C)CCC1N2C(=O)C=Cc1ccccc1 (configuration not stated) | 3.49 |
| CCC1(CC)C(=O)NCC(C)C1=O (configuration not stated) | 0.78 |
| NCC(O)c1ccc(O)cc1 (configuration not stated) | -0.9 |
| COc1ccc2cc(C(C)C(=O)Oc3ccccc3)ccc2c1 (configuration not stated) | 5.17 |
| OC(CN1C2CCCCCC21)Cn1ccnc1 (configuration not stated) | 1.44 |
| NS(=O)(=O)c1ccc(S(=O)(=O)CCCO)c([N+](=O)[O-])c1 | -0.05 |
| COc1ccc(C(=O)CCCC(=O)O)cc1 | 1.63 |
| CN(C)[C@@H]1C(O)=C(C(N)=O)C(=O)[C@@]2(O)C(O)=C3C(=O)c4c(O)cccc4[C@@](C)(O)[C@H]3[C@H](O)[C@@H]12 | -0.9 |
| CCCc1c(C)nc2ccccn2c1=O | 1.75 |
| CC(C)(CN1CCCCC1)C(=O)c1ccccc1 | 3.78 |
| Cc1cccn2c(=O)ccnc12 | 0.79 |
| CCNC(=O)[C@@H](NC(=O)CNC(=O)c1ccccc1)C(C)C | 1.05 |
| COC(=O)C1=C(C)NC(C)=C(C(=O)OC(C)C)C1c1cccc2nonc12 (configuration not stated) | 4.28 |
| CNC(=O)NCCCCn1nc(-c2ccccc2)ccc1=O | 1.23 |
| CCc1ncc([N+](=O)[O-])n1CCNC(=S)OC | 1.46 |
| Nc1ccc(C(=O)O)c(O)c1 | 0.89 |
| CCCCCCCC(=O)N[C@@H]1C(=O)N2[C@@H]1SC(C)(C)[C@@H]2C(=O)O | 3.32 |
| Cc1nn(-c2ccccc2)c(Nc2ccccc2)c1[N+](=O)[O-] | 2.98 |
| O=C(O)c1cc(I)ccc1O | 3.34 |
| CNC=Nc1ccc(C)cc1C | 2.92 |
| Cn1c(S)nnc(-c2ccc(F)cc2)c1=O | 2.38 |
| CN1C(CSCC(F)(F)F)Nc2cc(Cl)c(S(N)(=O)=O)cc2S1(=O)=O (configuration not stated) | 1.9 |
| CCCOC(=O)c1ccoc1 | 2.36 |
| CCN1CCc2nc(N)oc2CC1 | 0.05 |

| SMILES | logP |
| --- | --- |
| COc1ccc(C(=O)OCC2OC(n3cc(I)c(=O)[nH]c3=O)CC2O)cc1 (configuration not stated) | 1.38 |
| Cc1cccc(C(N)=O)c1O | 2.12 |
| O=C(O)C=Cc1ccc(O)cc1 | 1.46 |
| O=C(O)CCCC(=O)c1ccccc1 | 1.49 |
| Cc1ccc(C)c(C)c1C | 4 |
| CCOP(=O)(O)Cc1ccc(Cl)cc1 | 1.6 |
| CCCC(=NOCC)C1C(=O)CC(c2ccccc2)(c2ccccc2)OC1=O (configuration not stated) | 4.75 |
| Cc1c(O)ccc(O)c1C | 1.36 |
| CC1CCC2C(C)C(O)OC3OC4(C)CCC1C32OO4 (configuration not stated) | 2.19 |
| Clc1ccc(-c2ccc(Cl)cc2)cc1 | 5.23 |
| CCc1c(C)nc2cccc(C)n2c1=O | 1.86 |
| Cc1ccc(Cn2cc(F)c(=O)[nH]c2=O)cc1 | 1.5 |
| Nc1cccc(C(=O)O)c1 | 0.65 |
| Cc1ccc(C=O)o1 | 0.67 |
| CCCCCCOc1ccc(CC(=O)O)cc1 | 3.96 |
| CCOC(=O)C1=CNC2CCCCN2C1=O (configuration not stated) | 0.57 |
| CC1CCC=C2N(C)C=C(C(N)=O)C(=O)N21 (configuration not stated) | 0.12 |
| Cc1ncc([N+](=O)[O-])n1CCOC(N)=O | -0.29 |
| C=CCC(CC=C)(C(=O)NC(N)=O)C(=O)OC | 1.37 |
| CCC(=O)OCC1OC(n2cc(I)c(=O)[nH]c2=O)CC1O (configuration not stated) | 0.68 |
| Nc1cc([N+](=O)[O-])ccc1O | 1.26 |
| CCOC(=O)NC1=NCC(c2ccc(F)cc2)N1C (configuration not stated) | 1.9 |
| CCc1c(O)c(=O)ccn1CCO | -0.66 |
| Cc1ccccc1C(=O)CCN1CCCCC1 | 3.54 |

| SMILES | logP |
| --- | --- |
| COC(=O)NC1=NCC(c2ccccc2)N1C (configuration not stated) | 1.57 |
| O=c1c2c(nc3ccccn13)CCC2 | 1.19 |
| O=[N+]([O-])c1c(Cl)c(Cl)c(Cl)c(Cl)c1Cl | 4.64 |
| Cc1cc(C(=O)O)ccc1N | 1.37 |
| CC1c2nc3ccccc3c(=O)n2CN1CCO (configuration not stated) | 0.46 |
| CC(C)CC1NC(=O)NC1=O (configuration not stated) | 0.35 |
| CCNC(=O)NCCCCn1nc(-c2ccccc2)ccc1=O | 1.83 |
| CCCCCCCC(=O)n1cc(CC(NC(=O)CC2NC(=O)C3C4CCC(CC4)N3C2=O)C(=O)NC(Cc2ccccc2)C(=O)N(C)Cc2ccccc2)c2ccccc21 (configuration not stated) | 7.29 |
| NC1C2CCC1c1cccc(C(F)(F)F)c1C2 (configuration not stated) | 3.65 |
| ClC(Cl)Br | 2 |
| Nn1c(S)nnc(-c2cc(Cl)cc(Cl)c2)c1=O | 2.67 |
| CCc1nc(S(=O)(=O)Nc2c(F)cccc2F)nn1-c1ccccc1 | 3.7 |
| CC(=O)Nc1ccn(C2OC(CO)C(O)C2O)c(=O)n1 (configuration not stated) | -1.35 |
| Cc1ccn2c(=O)ccnc2c1 | 0.56 |
| Nc1cccc(S(=O)(=O)[O-])c1.[Na+] | -3.4 |
| Clc1ccc(-c2c(Cl)ccc(Cl)c2Cl)cc1Cl | 6.22 |
| Cc1ccc(C)c(Oc2cccc(C(=O)NC(C)(C)C)c2)c1 | 4.78 |
| COC(=O)NC1=NCC(c2ccccc2Br)N1 (configuration not stated) | 1.85 |
| CCOC(=O)c1cnc2n(c1=O)C(C)CCC2 (configuration not stated) | 0.62 |
| CC(C)(C)C(COc1ccccc1)OC(=O)n1ccnc1 (configuration not stated) | 3.58 |
| CCCNC(=O)CCn1ccc(=O)c(O)c1C | -0.4 |
| CC(=O)Nc1cc(C(C)(C)C)c(O)cc1C | 2.18 |
